Key:
Assay in all cases: In vitro antibacterial activity, agar dilution MIC
Assay type in all cases: cell-based
[1] = system: Haemophilis Influenzae DILL AMP R; conditions: code WW, 35-37° C., 20 to 24 hours
Experimental: (§1) Representative compounds of the present invention were assayed in vitro for antibacterial activity as follows: Twelve petri dishes containing successive aqueous dilutions of the test compound mixed with 10 mL of sterilized Brain Heart Infusion (BHI) agar (Difco 0418-01-5) were prepared. Each plate was inoculated with 1:100 (or 1:10 for slow-growing strains, such as Micrococcus and Streptococcus) dilutions of up to 32 different microorganisms, using a Steers replicator block. The inoculated plates were incubated at 35-37° C. for 20 to 24 hours. In addition, a control plate, using BHI agar containing no test compound, was prepared and incubated at the beginning and end of each test.
(§2) An additional plate containing a compound having known susceptibility patterns for the organisms being tested and belonging to the same antibiotic class as the test compound was also prepared and incubated as a further control, as well as to provide test-to-test comparability.
(§3) After incubation, each plate was visually inspected. The minimum inhibitory concentration (MIC) was defined as the lowest concentration of drug yielding no growth, a slight haze, or sparsely isolated colonies on the inoculum spot as compared to the growth control.

[2] = system: Streptococcus Pneumonia GYR 1171; conditions: code YY, 35-37° C., 20 to 24 hours
Experimental: as §1, §2, §3

[3] = system: Micrococcus luteus ATCC 4698; conditions: code PP, BHI agar, 35-37° C., 20 to 24 hours
Experimental: as §1, §2, §3

[4] = system: Streptococcus pyogenes EES61; conditions: code LL, BHI agar, 35-37° C., 20 to 24 hours
Experimental: as §1, §2, §3

[5] = system: Streptococcus Pneumonia 5979; conditions: code ZZ, 35-37° C., 20 to 24 hours
Experimental: as §1, §2, §3

[6] = system: Streptococcus Pneumonia ATCC 6303; conditions: code XX, 35-37° C., 20 to 24 hours
Experimental: as §1, §2, §3

[7] = system: Streptococcus Pneumonia 5649; conditions: code ZZA (code list: ZA), 35-37° C., 20 to 24 hours
Experimental: as §1, §2, §3

[8] = system: Staphylococcus aureus 1775; set-up: unit not given here; conditions: code GG, BHI agar, 35-37° C., 20 to 24 hours
Experimental: as §1, §2, §3

Escherichia coli DC-2 = system: Escherichia coli DC-2; set-up: unit not given here; conditions: code SS, BHI agar, 35-37° C., 20 to 24 hours
Experimental: as §1, §2, §3

[9] = system: Staphylococcus aureus A-5278; set-up: unit not given here; conditions: code CC, BHI agar, 35-37° C., 20 to 24 hours
Experimental: as §1, §2, §3

Candida albicans CCH 442 = system: Candida albicans CCH 442; set-up: unit not given here; conditions: code TT, BHI agar, 35-37° C., 20 to 24 hours
Experimental: as §1, §2, §3

[10] = system: Staphylococcus aureus A-5177; set-up: unit not given here; conditions: code BB, BHI agar, 35-37° C., 20 to 24 hours
Experimental: as §1, §2, §3

[11] = system: Streptococcus pyogenes PIU 2548; set-up: unit not given here; conditions: code NN, BHI agar, 35-37° C., 20 to 24 hours
Experimental: as §1, §2, §3

[12] = system: Nocardia Asteroides ATCC 99700; set-up: unit not given here; conditions: code VV, BHI agar, 35-37° C., 20 to 24 hours
Experimental: as §1, §2, §3

[13] = system: Streptococcus bovis A-5169; set-up: unit not given here; conditions: code JJ, BHI agar, 35-37° C., 20 to 24 hours
Experimental: as §1, §2, §3

Escherichia coli JUHL = system: Escherichia coli JUHL; set-up: unit not given here; conditions: code QQ, BHI agar, 35-37° C., 20 to 24 hours
Experimental: as §1, §2, §3

[14] = system: Micrococcus luteus ATCC 9341; set-up: unit not given here; conditions: code OO, BHI agar, 35-37° C., 20 to 24 hours
Experimental: as §1, §2, §3

[15] = system: Staphylococcus aureus ATCC 6538P; set-up: unit not given here; conditions: code AA, BHI agar, 35-37° C., 20 to 24 hours
Experimental: as §1, §2, §3

[16] = system: Mycobacterium smegmatis ATCC 114; set-up: unit not given here; conditions: code UU, BHI agar, 35-37° C., 20 to 24 hours
Experimental: as §1, §2, §3

Escherichia coli SS = system: Escherichia coli SS; set-up: unit not given here; conditions: code RR, BHI agar, 35-37° C., 20 to 24 hours
Experimental: as §1, §2, §3

[17] = system: Staphylococcus aureus CMX 553; set-up: unit not given here; conditions: code FF, BHI agar, 35-37° C., 20 to 24 hours
Experimental: as §1, §2, §3

[18] = system: Streptococcus agalactiae CMX 508; set-up: unit not given here; conditions: code KK, BHI agar, 35-37° C., 20 to 24 hours
Experimental: as §1, §2, §3

[19] = system: Staphylococcus aureus NCTC 10649M; set-up: unit not given here; conditions: code EE, BHI agar, 35-37° C., 20 to 24 hours
Experimental: as §1, §2, §3

[20] = system: Enterococcus faecium ATCC X043; set-up: unit not given here; conditions: code II, BHI agar, 35-37° C., 20 to 24 hours
Experimental: as §1, §2, §3

[21] = system: Staphylococcus epidermidis 3519; set-up: unit not given here; conditions: code HH, BHI agar, 35-37° C., 20 to 24 hours
Experimental: as §1, §2, §3

[22] = system: Staphylococcus aureus CMX 642A; set-up: unit not given here; conditions: code DD, BHI agar, 35-37° C., 20 to 24 hours
Experimental: as §1, §2, §3

[23] = system: Streptococcus pyogenes 930; set-up: unit not given here; conditions: code MM, BHI agar, 35-37° C., 20 to 24 hours
Experimental: as §1, §2, §3

SMILES	Antibacterial Activity (MIC) [1]	Antibacterial Activity (MIC) [2]	Antibacterial Activity (MIC) [3]	Antibacterial Activity (MIC) [4]	Antibacterial Activity (MIC) [5]	Antibacterial Activity (MIC) [6]	Antibacterial Activity (MIC) [7]	Antibacterial Activity (MIC) [8]	Antibacterial Activity (MIC) (Escherichia coli DC-2)	Antibacterial Activity (MIC) [9]	Antibacterial Activity (MIC) (Candida albicans CCH 442)	Antibacterial Activity (MIC) [10]	Antibacterial Activity (MIC) [11]	Antibacterial Activity (MIC) [12]	Antibacterial Activity (MIC) [13]	Antibacterial Activity (MIC) (Escherichia coli JUHL)	Antibacterial Activity (MIC) [14]	Antibacterial Activity (MIC) [15]	Antibacterial Activity (MIC) [16]	Antibacterial Activity (MIC) (Escherichia coli SS)	other results
CCC1OC(=O)C(C)(O)C(=O)C(C)C(OC2OC(C)CC(N(C)C)C2O)C(C)(OCC(O)CO)CC(C)C(=O)C(C)C2NC(=O)OC12C (stereo not drawn) [Example 3, Compound of formula (II): R^a is —CH2CH(OH)CH2OH, R^b is H, Y and Z together are O, T is —NH—, R is —OH]	>128	32	>100	100	>128	64	>128	>100	>100	>100	>100	>100	>100	>100	50	>100	50	>100	>100	100	Antibacterial Activity (MIC) [17]: >100; Antibacterial Activity (MIC) [18]: 50; Antibacterial Activity (MIC) [19]: >100; Antibacterial Activity (MIC) [20]: 100; Antibacterial Activity (MIC) [21]: >100; Antibacterial Activity (MIC) [22]: >100; Antibacterial Activity (MIC) [23]: >100
C=CCC1(C)C(=O)OC(CC)C2(C)OC(=O)NC2C(C)C(=O)C(C)CC(C)(OCC=Cc2cnc3ccccc3c2)C(OC2OC(C)CC(N(C)C)C2O)C(C)C1=O (stereo not drawn) [Example 4, Compound of formula (II): R^a is —CH2CH═CH—(3-quinolinyl), R^b is H, Y and Z together are O, T is —NH—, R is —CH2CH═CH2]	16	0.25	0.78	0.1	64	0.25	2	>100	>100	>100	>100	0.39	0.78	0.1	0.05	>100	0.1	0.78	3.1	3.1	Antibacterial Activity (MIC) [17]: 0.39; Antibacterial Activity (MIC) [18]: 0.2; Antibacterial Activity (MIC) [19]: 0.78; Antibacterial Activity (MIC) [20]: 0.2; Antibacterial Activity (MIC) [21]: 0.39; Antibacterial Activity (MIC) [22]: 0.78; Antibacterial Activity (MIC) [23]: 12.5
CCC1OC(=O)C(C)(O)C(=O)C(C)C(OC2OC(C)CC(N(C)C)C2O)C(C)(OCC=Cc2cnc3ccccc3c2)CC(C)C(=O)C(C)C2NC(=O)OC12C (stereo not drawn) [Example 8, Compound of formula (II): R^a is —CH2CH═CH—(3-quinolinyl), R^b is H, Y and Z together are O, T is —NH—, R is —OH,]	16	0.03	0.2	0.02	128	0.03	0.5	>100	>100	>100	>100	0.39	0.39	0.39	0.02	>100	0.02	0.39	3.1	0.2	Antibacterial Activity (MIC) [17]: 0.78; Antibacterial Activity (MIC) [18]: 0.01; Antibacterial Activity (MIC) [19]: 0.78; Antibacterial Activity (MIC) [20]: 0.2; Antibacterial Activity (MIC) [21]: 0.39; Antibacterial Activity (MIC) [22]: 0.39; Antibacterial Activity (MIC) [23]: 50

From patent US20020193320A1, “C-2 modified erythromycin derivatives” (priority 1999, published 2002)
